These results are taken from US20130337028A1, “BIOMIMETIC PEPTIDES FOR BONE AUGMENTATION” (NANOVIS, INC., priority 2010, published 2013).

The subject of experiment [1] is Human fetal osteoblasts (hFOB, CRL-11372, ATCC). Description: Osteoblast proliferation testing (osteoblast density). As to conditions: after day 3, seeded at 2500 cells/cm^2, FIG. 2. Type of experiment: cell-based. The procedure: (§1) Human fetal osteoblasts (hFOB, CRL-11372, ATCC) of population numbers 7-11 were cultured in Dulbecco's Modified Eagle's Medium (DMEM, GIBCO) supplemented with 10% fetal bovine serum (FBS, Hyclone) and 1% penicillin/streptomycin (P/S, Hyclone) under standard cell culture conditions (that is, a humidified, 5% CO2/95% air environment at 37° C.). Osteoblasts were seeded onto the petri-dish at a density of 3500 cells/cm^2 and were cultured under standard cell culture conditions for 4 h with peptide concentration discussed. After the prescribed time period, non-adherent cells were removed by sequential phosphate buffered saline (PBS) washings. The remaining cells were fixed using 10% normal buffered formaldehyde (Fisher Scientific) for 10 min and 0.1% Triton X-100 (Sigma-Aldrich) for 5 min. Adherent cells were counted in five random fields per substrate under a Zeiss Axiovert 200M fluorescence microscope. Experiments were run in triplicate and repeated three separate times for each substrate.
For osteoblast proliferation studies, similar to the above procedures, osteoblasts were seeded on petri dish at 2500 cells/cm^2 with peptides and cultured for 1, 3 days. After the prescribed time periods, adherent cells were fixed, stained and counted under the fluorescence microscope as described above. All cellular experiments were run in triplicate and repeated at least three times for each substrate.

The test system is the same in experiment [2]. Put plainly: Cell adhesion testing. As to conditions: 4 h culture, seeded at 3500 cells/cm^2. Type of experiment: cell-based. Here is the method: as §1
Experiment [3] has as its system critical sized bone defect. Put plainly: Critical sized bone defect model, proximal tibia and distal femur. The class given is in vivo, Sinclair minipigs. As to conditions: with nPLGA and HRN based scaffolds, 4 and 8 weeks, FIG. 6. The procedure: A critical sized bone defect model was used in the proximal tibia and distal femur of 12 Sinclair minipigs (Sinclair Research, MO). Time points to be evaluated are 4 weeks and 8 weeks. Four surgical defects (2 tibia and 2 femur) were created on day 0 in all pigs in one limb and on day 28 in all pigs in the opposite limb. Treatments were applied according to predetermined treatment allocations. MRI evaluations of defects were performed at 4 weeks (all limbs) and 8 weeks (initial defects created on day 0). Following euthanasia, defects were evaluated using microCT and histology to measure bone volume fraction within the defects and with mechanical testing to evaluate compressive stiffness and integration with surrounding bone.
Minipigs were given pre-operative analgesic and antimicrobial drugs immediately prior to anesthesia. Pigs were anesthetized in the Clinical Discovery Laboratory (CDL) using standard swine protocols. One stifle region was aseptically prepared and draped routinely for surgery of the proximal tibia and distal femur. Defects were created in epiphyseal/metaphyseal cancellous bone using an 8 mm drill to a depth of 20 mm. The procedure was repeated in the opposite hind limb at 4 weeks. (Confirmation of the critical defect size in minipigs is to be determined.)
Minipigs were housed in the animal holding facility room 1094 and monitored post-operatively. […]

Experiment [4] has as its system osteoblasts. Description: Cell function tests, overall osteoblast function. The class given is cell-based, human. As to conditions: summary of total protein, ALP and calcium tests. Here is the method:
(§2) Total intracellular protein content of osteoblasts is extremely important since it is the indication of healthy growth and normal cell response. Thus, the amount of protein produced by cells were measured up to 3 weeks of culture after providing complete media. In order to release the intracellular protein, the adhered cells on the substrates were lysed in DI water using a standard four cycle freeze-thaw method. The resulting lysate solution was then used for analysis. The total protein content were determined by a BCA (bicinchoninic acid) assay kit (Pierce) and the absorbance of the solution were measured using a spectrophotometer at a wavelength of 570 nm. The absorbance was then converted to protein content using an albumin standard curve to determine the amount of intracellular protein.
(§3) The resulting lysate solution obtained by a four cycle freeze-thaw method was used to measure the ALP activity using a colorimetric assay (Teco). The absorbance of the solution was measured using a spectrophotometer at a wavelength of 590 nm. The absorbance was converted to concentration using ALP standard and all the data were normalized with total protein content to account for changes in number of cells present on surface.
The calcium content was measured up to 3 weeks in culture using a colorimetric assay (Teco) (see FIG. 4). […]

For experiment [5], the system named is osteoblasts. Put plainly: Total intracellular protein content of osteoblasts (BCA assay). Type of experiment: cell-based, human. As to conditions: after 7 and 14 days, FIG. 5. Here is the method: as §2
The subject of experiment [6] is osteoblasts. Put plainly: Alkaline phosphatase activity of osteoblasts (colorimetric assay). Type of experiment: cell-based, human. As to conditions: up to 3 weeks, normalized with total protein content, FIG. 3. The procedure:
as §3

Experiment [7] has as its system osteoblasts. Put plainly: Calcium content / calcium deposition by osteoblasts (colorimetric assay). The class given is cell-based, human. As to conditions: after 21 days, normalized with total protein content. Here is the method: The calcium content was measured up to 3 weeks in culture using a colorimetric assay (Teco) (see FIG. 4). After all the lysate was aspirated, the surfaces were soaked overnight in 6 N HCl solution to dissolve the deposited calcium. The calcium solution was then reacted with assay reagents and the absorbance of the solution was measured photometrically at 570 nm. The absorbance was then converted to concentration using calcium standards and all the data were normalized with total protein content to account for changes in the number of cells present on surface.

Take KRSR (Ac-KRSR-NH2) [reference compound]: the “osteoblast density / attachment on peptide coated surfaces” value (“osteoblast density / attachment” below) in experiment [1] is given as “increased osteoblast attachment compared to other peptides studied”. Moreover, the “osteoblast adhesion to substrates” value in experiment [2] is reported as “proved to be crucial for maximal osteoblast adhesion to substrates”. For the same substance, in experiment [3], the “new bone growth (histology)” value is “showed new bone growth”. Besides, in the experiment on osteoblasts [4], the “osteoblast function (overall)” value is given as “showed increased osteoblast function”.

Consider KRSRSNVILKKYRN (Ac-KRSRSNVILKKYRN-NH2), for which the “osteoblast density / attachment” value in experiment [1] is reported as “increased osteoblast attachment compared to other peptides studied”. Moreover, in experiment [3], the “new bone growth (histology)” value is listed as “showed new bone growth”. Also, the “total proteins synthesized by osteoblasts” value with osteoblasts [5] is “showed the highest value compared to other peptides and the control”. Further, in the experiment with osteoblasts [6], the alkaline phosphatase activity entry is on record as “superiority”. Also, the calcium deposition entry in the experiment on osteoblasts [7] is “showed highest value compared to other materials studied”. For the same substance, the “osteoblast function (overall)” value in the experiment with osteoblasts [4] was “showed increased osteoblast function”.

Consider SNVILKKYRN, for which the “osteoblast density / attachment” value in experiment [1] is reported as “increased osteoblast attachment compared to other peptides studied”.
